In patent US20250243170A1, “REMIBRUTINIB DRUG SUBSTANCE AND DRUG PRODUCT SUBSTANTIALLY FREE OF NITROSAMINE IMPURITY” (NOVARTIS AG, priority 2024, published 2025):
Where “and” joins values, the source holds several entries; their conditions need not be identical. Identical values can stand only once. Entries after “also recorded” stand apart in the source; their conditions may differ.

Experiments:
[1] = Additional stress testing of F8 (inert gas, open vial, light); format: physicochemical; conditions: for formation of nitrosamine upon storage: several days, room temperature
Description: (§1) The impact of protective gas (nitrogen) for storage vs storage in non-protected atmosphere, of light exposed vs dark conditions and the effect of temperature was investigated. In addition, the stability study samples pulled after 12 M of storage at different temperature and humidity were included into the assessment.

[2] = Stability of intermediate F8: nitrosamine content upon air exposure; format: physicochemical
Protocol: (§2) • Limit-test by LC-MS (SIM mode), AJS-ES, positive mode, SIM Ion: 483.2 [M+H]+ • Column: YMC-Triart C18, 100×3.0 mm, particle size 1.9 μm, 12 nm • Mobile phase A: Dissolve 0.315 g of Ammonium formate in 1000 ml of water, add 0.5 ml of formic acid • Mobile phase B: Methanol • Sample solvent: Methanol+0.2% (v/v) Formic acid • Sample solution: approx. 100 mg of the sample in 20 mL • Flow: 0.6 mL/min • Injection volume: 3 μL • Autosampler cooled, 8° C. • Column temperature. 80° C. • Gradient: […]

[3] = Stability of F8: nitrosamine content after 12 months storage; format: physicochemical; conditions: for growth of nitrosamine-content upon storage / change of nitrosamine-content upon storage: 12M; for Nitrosamine content in F8: double polyethylene-bags
Protocol: as §2, §1

[4] = Accelerated predictive stability (APS) of LOU064 drug substance, open dish; format: physicochemical; conditions: for Nitrosamine impurity: open dish
Protocol: as §2, with “0.5 mL” for “0.5 ml”
A statistical based approach, Accelerated Predictive Stability (APS), using the humidity modified Arrhenius equation [Waterman and al., International Journal of Pharmaceutics 293 (1-2), 101-125 (2005)] is applied to understand stability behavior and predict the retest period. […] Short studies are conducted on open dish samples of representative batch(es) of drug substance at accelerated conditions using a wide range of temperatures and humidity with the goal of reaching the specification limit for the identified retest period limiting attributes at each condition as detailed below. […] The humidity corrected Arrhenius equation reflects both the influence of the temperature, and the moisture on the kinetics of the degradation product formation. The resulting open-dish data are fitted to a humidity-corrected Arrhenius equation^1 using ASAPprime® (current version 6.0): […]
3 batches of LOU064 drug substance were placed in open dish under the protocol summarized below:
(§3) The pulled samples were analyzed by HPLC-MS as per method described in example 1 and reported below in tables 8 and 9.

[5] = APS of LOU064 drug substance, closed vessel with or without nitrogen purge; format: physicochemical
Protocol: as §2, with “0.5 mL” for “0.5 ml”
Samples of batches of LOU064 drug substance were prepared in duplicated in closed container, with one sample being purged with nitrogen and the other not.
as §3

[6] = tested on: Salmonella typhimurium strain TA98; test: Enhanced Ames Test (EAT), strain TA98; conditions: TA98, presence of hamster S-9
Protocol: (§4) N-(3-(6-amino-5-(2(methyl)(nitroso)amino)ethoxy)pyrimidin-4-yl)-5-fluoro-2-methylphenyl)-4-cyclopropyl-2-fluorobenzamide was evaluated in the EAT performed under GLP following the EMA and FDA guidance (2023) for the EAT conditions for N-nitrosamines.
(§5) In this study N-(3-(6-amino-5-(2(methyl)(nitroso)amino)ethoxy)pyrimidin-4-yl)-5-fluoro-2-methylphenyl)-4-cyclopropyl-2-fluorobenzamide was evaluated for mutations in Salmonella typhimurium strains TA98, TA100, TA1535 and TA1537 and Escherichia coli strain WP2 uvrA pKM101, both in the absence and presence of 30% rat and hamster metabolic activation (β-naphthoflavone/phenobarbital-induced rat and hamster liver post-mitochondrial S-9 fraction). The test used pre-incubation method (30 minutes). N-(3-(6-amino-5-(2(methyl)(nitroso)amino)ethoxy)pyrimidin-4-yl)-5-fluoro-2-methylphenyl)-4-cyclopropyl-2-fluorobenzamide was formulated in dimethyl sulfoxide (DMSO) at concentrations of 5, 16, 50, 160, 500, 1600 and 5000 μg/plate.
(§6) Following the recommendations of the EAT, in addition to the concurrent strain-specific positive controls, two nitrosamine positive controls, i.e. N-nitrosodiethylamine (NDEA) and N-methyl-N-nitroso-(2-phenylethyl)amine (MNPA) were used that are known to be mutagenic in the presence of S-9.

[7] = Formulation analyses of EAT dosing formulations in DMSO; format: physicochemical; conditions: 6 hrs at room temperature
[8] = tested on: Salmonella typhimurium strain TA100; test: Enhanced Ames Test (EAT), strain TA100
Protocol: as §4, §5, §6

[9] = tested on: Salmonella typhimurium strains TA98, TA100, TA1535 and TA1537 and Escherichia coli strain WP2 uvrA pKM101; test: Enhanced Ames Test (EAT), all tester strains; format: cell-based
Protocol: The test used pre-incubation method (30 minutes).

[10] = tested on: Salmonella typhimurium strain TA1535; test: Enhanced Ames Test (EAT), strain TA1535; conditions: TA1535, presence of hamster S-9
Protocol: as §4, §5, §6

In the case of `CNCCOc1c(N)ncnc1-c1cc(F)cc(NC(=O)c2ccc(C3CC3)cc2F)c1C` [F8], the “effect of exposure to light on nitrosamine formation” value ([1]; light exposed vs dark) is reported as “slightly accelerate conversion of F8 into nitrosamine”, the “formation of nitrosamine upon storage” value ([1]; open vial) is reported as “rapid increase” and the “formation of nitrosamine upon storage” value ([1]; stored under inert gas) is reported as “only a minor, yet constant formation of nitrosamine”. The “Nitrosamine in F8” value ([2]; Analyzed after 52 h air exp.) was 533 ppb, the “Nitrosamine in F8” value ([2]; Analyzed directly after weighting the sample) was 86 ppb and the “growth of nitrosamine-content upon storage” value ([3]; 30° C./65% RH) was > 100%. For the same molecule, the “growth of nitrosamine-content upon storage” value ([3]; 40° C./75% RH) was > 100%, the “change of nitrosamine-content upon storage” value ([3]; cold (5° C.)) was “only a minor rise” and the “change of nitrosamine-content upon storage” value ([3]; frozen (−20° C.)) was “no increase”. For the same molecule, the “Nitrosamine content in F8” value ([3]; 12 months, 5° C.) was 323 ppb, the “Nitrosamine content in F8” value ([3]; 12 months, 30° C., 65% RH) was 595 ppb and the “Nitrosamine content in F8” value ([3]; 12 months, 40° C., 75% RH) was 647 ppb. For the same molecule, the “Nitrosamine content in F8” value ([3]; 12 months, −20° C.) was 276 ppb and the “Nitrosamine content in F8” value ([3]; T0) was 300 ppb.

With `C=CC(=O)N(C)CCOc1c(N)ncnc1-c1cc(F)cc(NC(=O)c2ccc(C3CC3)cc2F)c1C` [LOU064 drug substance, N-(3-(6-Amino-5-(2-(N-methylacrylamido)ethoxy)pyrimidin-4-yl)-5-fluoro-2-methylphenyl)-4-cyclopropyl-2-fluorobenzamide] the “stability behavior of the nitrosamine impurity” value ([4]; all APS open dish conditions) was “stable”, the Nitrosamine impurity ([4]; 50° C., 75% RH, 14 days) was 74.9 ppb and the Nitrosamine impurity ([4]; 50° C., 75% RH, 21 days) was 75.8 ppb. For the same molecule, the Nitrosamine impurity ([4]; 50° C., 75% RH, 28 days) was 106.5 ppb and 106.8 ppb, the Nitrosamine impurity ([4]; 60° C., 11% RH, 21 days) was 87.1 ppb and the Nitrosamine impurity ([4]; 60° C., 11% RH, 28 days) was 113.5 ppb. For the same molecule, the Nitrosamine impurity ([4]; 60° C., 50% RH, 14 days) was 77.0 ppb, the Nitrosamine impurity ([4]; 60° C., 50% RH, 28 days) was 106.6 ppb and the Nitrosamine impurity ([4]; 60° C., 75% RH, 14 days) was 69.8 ppb. It also gave a Nitrosamine impurity ([4]; 60° C., 75% RH, 21 days) of 82.7 ppb, a Nitrosamine impurity ([4]; 60° C., 75% RH, 28 days) of 119.1 ppb and a Nitrosamine impurity ([4]; 70° C., 31% RH, 14 days) of 77.9 ppb. It also gave a Nitrosamine impurity ([4]; 70° C., 31% RH, 28 days) of 113.3 ppb, a Nitrosamine impurity ([4]; 70° C., 50% RH, 21 days) of 83.2 ppb and a Nitrosamine impurity ([4]; 70° C., 50% RH, 28 days) of 108.3 ppb. The Nitrosamine impurity ([4]; 70° C., 75% RH, 14 days) was 82.6 ppb, the Nitrosamine impurity ([4]; 70° C., 75% RH, 21 days) was 83.2 ppb and the Nitrosamine impurity ([4]; 80° C., 51% RH, 7 days) was 105.3 ppb. The Nitrosamine impurity ([4]; 80° C., 51% RH, 21 days) was 75.5 ppb, the Nitrosamine impurity ([4]; initial, 0 days) was 99.1 ppb and the “nitrosamine, stored closed under nitrogen versus closed without nitrogen” value ([5]; 60-80° C., up to 27 days) was “no difference observed beyond analytical variability”. The “Nitrosamine without Nitrogen purge” value ([5]; 60° C., 21 days) was 72.5 ppb, the “nitrosamine with Nitrogen purge” value ([5]; 60° C., 21 days) was 86.5 ppb and the “Nitrosamine without Nitrogen purge” value ([5]; 60° C., 27 days) was 109.8 ppb. For the same molecule, the “nitrosamine with Nitrogen purge” value ([5]; 60° C., 27 days) was 110.4 ppb, the “Nitrosamine without Nitrogen purge” value ([5]; 70° C., 21 days) was 67.0 ppb and the “nitrosamine with Nitrogen purge” value ([5]; 70° C., 21 days) was 76.6 ppb. For the same molecule, the “Nitrosamine without Nitrogen purge” value ([5]; 70° C., 27 days) was 116.0 ppb, the “nitrosamine with Nitrogen purge” value ([5]; 70° C., 27 days) was 109.4 ppb and the “Nitrosamine without Nitrogen purge” value ([5]; 80° C., 21 days) was 59.6 ppb. The “nitrosamine with Nitrogen purge” value ([5]; 80° C., 21 days) was 54.8 ppb, the “Nitrosamine without Nitrogen purge” value ([5]; 80° C., 27 days) was 114.7 ppb and the “nitrosamine with Nitrogen purge” value ([5]; 80° C., 27 days) was 119.2 ppb. The “Nitrosamine without Nitrogen purge” value ([5]; initial, 0 days) was 99.1 ppb and the “nitrosamine with Nitrogen purge” value ([5]; initial, 0 days) was 99.1 ppb.

In the case of `CN(CCc1ccccc1)N=O` [MNPA, N-methyl-N-nitroso-(2-phenylethyl)amine], the “increase in revertant numbers” value [6] is reported as “up to 1.9 fold”.

With `Cc1c(NC(=O)c2ccc(C3CC3)cc2F)cc(F)cc1-c1ncnc(N)c1OCCN(C)N=O` [N-(3-(6-amino-5-(2(methyl)(nitroso)amino)ethoxy)pyrimidin-4-yl)-5-fluoro-2-methylphenyl)-4-cyclopropyl-2-fluorobenzamide] the “stability and homogenicity in the formulations” value [7] was “demonstrated stability and homogenicity”, the “increase in revertant numbers” value ([8]; TA100, presence of hamster S-9) was ≥ 2 fold and the “mutagenicity in the presence of rat S-9” value ([9]; 30% rat S-9) was “not mutagenic”. The “Enhanced Ames Test (EAT) result” value ([9]; GLP, EMA and FDA guidance (2023) EAT conditions for N-nitrosamines, pre-incubation 30 minutes, 5-5000 μg/plate) was “positive; also recorded: mutagenic under sensitive metabolic conditions”, the “mutagenicity without metabolic activation” value ([9]; absence of S-9) was “not mutagenic” and the Precipitation observed at ([9]; all tester strains, absence and presence of S-9, formulated in DMSO) was 1600 μg/plate and/or 5000 μg/plate. The “increase in revertant numbers” value [10] was ≥ 3 fold.

For `CCN(CC)N=O` [NDEA, N-nitrosodiethylamine, reference compound], the “increase in revertant numbers” value ([8]; TA100, presence of 30% rat S-9) was > 2 fold.
